Biological target: T1, 5-HT4 receptor (Cavia porcellus, UniProt O70528)
T1 construct: Longitudinal muscle-myenteric plexus preparations, approximately 3 cm long, are obtained from the distal colon region; from tissue; host or cells: guinea-pig distal colon, longitudinal muscle-myenteric plexus
Assay: Guinea pig colon 5-HT4 receptor antagonist activity (reduction of 5-HT evoked contraction of longitudinal muscle-myenteric plexus)
Settings: distal colon longitudinal muscle-myenteric plexus; contraction evoked by 5-HT; methiothepin 10^-7 M and granisetron 10^-6 M present; n=4; read-out: pIC50 (-log concentration of antagonist which reduces the contraction by 50%) (converted)
Method: Male guinea-pigs, weighing 250-400 g are used. Longitudinal muscle-myenteric plexus preparations, approximately 3 cm long, are obtained from the distal colon region. These are suspended under a 0.5 g load in isolated tissue baths containing Krebs solution bubbled with 5% CO2 in O2 and maintained at 37° C. In all experiments, the Krebs solution also contains methiothepin 10^-7 M and granisetron 10^-6 M to block effects at 5-HT1, 5-HT2 and 5-HT3 receptors.
After construction of a simple concentration-response curve with 5-HT, using 30s contact times and a 15 min dosing cycle, a concentration of 5-HT is selected so as to obtain a contraction of the muscle approximately 40-70% maximum(10^-9 M approx). The tissue is then alternately dosed every 15 min with this concentration of 5-HT and then with an approximately equi-effective concentration of the nicotine receptor stimulant, dimethylphenylpiperazinium (DMPP). After obtaining consistent responses to both 5-HT and DMPP, increasing concentrations of a putative 5-HT4 receptor antagonist are then added to the bathing solution. The effects of this compound are then determined as a percentage reduction of the contractions evoked by 5-HT or by DMPP. […] A compound which reduces the response to 5-HT but not to DMPP is believed to act as a 5-HT4 receptor antagonist.

T1 sequence (O70528 whole entry): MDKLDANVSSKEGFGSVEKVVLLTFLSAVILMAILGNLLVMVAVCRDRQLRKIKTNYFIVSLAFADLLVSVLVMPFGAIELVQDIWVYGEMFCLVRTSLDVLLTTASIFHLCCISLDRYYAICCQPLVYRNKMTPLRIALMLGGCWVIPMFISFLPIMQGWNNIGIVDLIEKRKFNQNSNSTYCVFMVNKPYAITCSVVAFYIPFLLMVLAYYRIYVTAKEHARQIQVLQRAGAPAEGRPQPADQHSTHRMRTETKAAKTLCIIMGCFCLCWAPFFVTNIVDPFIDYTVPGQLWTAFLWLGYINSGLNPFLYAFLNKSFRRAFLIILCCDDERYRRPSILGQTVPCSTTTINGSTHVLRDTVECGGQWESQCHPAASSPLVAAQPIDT

CCCCN1CCC(COC(=O)c2cc3[nH]cnc3c3c2OCCO3)CC1 [Example 1, (1-Butyl-4-piperidinyl)methyl 1 H-7,8-dihydro-[1,4]-dioxino[2,3-g]benzimidazole-5-carboxylate]
IC50: 0.166 µM

Reference: patent US5705509A, “Tricyclic heterocyclic compounds as 5-HT4 receptor antagonists” (SmithKline Beecham plc, priority 1993, dated 1998)
